The values below come from publication PMC12020424, “Identification and Validation of Cyclic Peptides with Mucin-Selective, Location-Specific Binding in the Gastrointestinal Tract” (ACS Nano, 2025).

One assay has as its target MUC2 (Homo sapiens, UniProt Q02817). Kind of assay: Biolayer interferometry binding kinetics, MUC2. To be noted: Octet RED96, biotinylated MUC2 on streptavidin sensor; for Kd: PBS pH 7.2, koff/kon, read-out: dissociation constant kd; for kon: PBS pH 7.2, association 300 s, dissociation 300 s. As for the experimental part:
(§1) Binding kinetics for the successful mucin-binding hits were measured using biolayer interferometry (BLI).[73] In BLI, a protein target is immobilized on the surface of a biosensor, creating a thin optical layer. These coated sensors are then exposed to a solution of the ligand (in this case, the small molecule and peptide hits), allowing the ligand to associate and dissociate with the protein target. This association/dissociation behavior changes the thickness of the optical layer, and the instrument correlates this change in thickness with binding and desorption. By testing different concentrations of the ligand, the kinetic rate constants and dissociation constant (kd) can be measured by fitting the resulting binding curves according to a binding model.[73]
(§2) For the analysis of mucin-binding kinetics, mucins MUC2 and MUC5AC were used as the protein targets, and the “hits” were used as the ligands of interest. Mucins were biotinylated and suspended in buffers with different pH levels (MUC2 in PBS with pH 7.2 and PBS-HCl with pH 3.35, MUC5AC in PBS-HCl with pH 1.82) that mimic the pH of the normal small intestine,[74] the small intestine during inflammatory bowel disease,[75] and the normal stomach,[76] respectively. Hits were dissolved in the same buffer to minimize the optical differences among the buffer, mucin solution, and analyte solution. BLI was carried out on an Octet RED96 platform in five steps. First, a baseline step of 60 s was carried out. Then, biotinylated mucins were immobilized onto the surface of a streptavidin sensor during a loading step of 300 s. Next, the loaded tips were allowed to re-equilibrate in another baseline step for 60 s. Following that, the loaded tips were allowed to incubate in a solution of analyte (an association step) for 300 s; this allowed the hits to interact with the mucin, changing the thickness of the optical layer and generating a response from the optical measurement. Finally, the tips were moved to buffer wells, and the hits were allowed to dissociate from the mucin for 300 s. Data were analyzed, and ligand-only and hit-only controls were used as references to properly characterize the binding performance of the hits.
(§3) Binding of the hits to the mucins generally follows one of two different mechanisms. The first is a 1:1 bimolecular model in which the molecule binds to a specific spot on the mucin. The reaction can, therefore, be described using the following model:[77] [drawing 3]
(§4) In this model, kon represents the rate of association of the hit to the mucin, while koff represents the rate of dissociation of the molecule from the molecule-mucin complex. The dissociation constant is calculated as the ratio of these two rate constants.
(§5) The second model is a 2:1 heterogeneous model, in which the molecule binds at two locations on the mucin (each with its own kinetic rate constants and dissociation constant).[78] These reactions are described using the following model: [drawing 4]
(§6) The rate constants for each interaction are equivalent to those of the single interaction present in the 1:1 model, while each interaction has its own dissociation constant. This was calculated similarly to the 1:1 model.

The target in another assay is MUC5AC (Homo sapiens, UniProt P98088). Put plainly: Biolayer interferometry binding kinetics, MUC5AC. To be noted: for Kd: PBS-HCl pH 1.82, koff/kon, read-out: dissociation constant kd. As to the method:
as §1, §2, §3, §4, §5, §6
(BLI is a label-free optical method that tracks binding on a fibre tip over time.)

For assay [1], the system named is MUC2-containing intestinal tissue (jejunal). Kind of assay: Ex vivo fluorescent binding to small intestine tissue. More on the design: species or system porcine. To be noted: MUC2-selective peptides to small intestine, scaled between free AF647 (0) and WGA-AF647 (1), mean across trials n = 3. The source says: (§7) After identifying the peptide hits for each mucin, we tested their binding in an ex vivo setting (Figure S1), evaluating their interaction with mucin-containing porcine tissue and semiquantitatively representing it through fluorescent imaging (Figure 3a). The cyclic peptides were synthesized and conjugated to a fluorophore, Alexa Fluor 647 (AF647), at the N-terminus to allow fluorescent imaging to be used to semiquantitatively measure the peptides’ ex vivo tissue binding, compared to free AF647 and AF647 conjugated to wheat germ agglutinin (WGA), a known lectin for glycoproteins.[40] […] Porcine GI tissue was used due to its similarity in mucin expression compared to human GI tissue and its capacity to source large surface areas of tissue for experiments.[41],[42] Representative IVIS images are shown in Figure 3b-e, where the first four columns represent the four identified peptides (M2.1–M2.4 in Figure 3b,c, M5.1–M5.4 in Figure 3d,e), the fifth column represents WGA-AF647, and the sixth column represents AF647. The “score” results for the peptide ligands are presented in Figure 3f,g for the mucins of interest, with Tables S2–S5 and Figure S3 detailing results for the other tissues (the equation for calculating the “score” is found in the Materials and Methodssection). […] We also examined selectivity by incubating peptides on nontarget tissues. Figure 3h,i depicts the “selectivity” results for the MUC2-selective and MUC5AC-selective peptides, respectively. Selectivity was calculated by determining the ratio of the “score” for a particular mucin to the sum of the “scores” for all mucins (see the Materials and Methods section for the equation used).
(§8) The top-performing hits from phage display were tested on ex vivo segments of porcine mucin-containing tissues (jejunal, stomach, and esophageal tissues) obtained from local abattoirs or laboratory-maintained pigs. Tissue was used either immediately after acquisition or after storage at −80 °C; tissue was used at most 1 week after acquisition and storage at −80 °C. After acquisition and equilibration to room temperature, the tissue was washed twice with 25 mL (each) of cold 1× PBS to remove undigested food and other debris. After washing and cleaning, the tissue was mounted between two magnetic plates with holes corresponding to a 48-well plate, as previously described,[72] such that the luminal side of the tissue was facing up (Figure S1). After the tissue was mounted, the amount of peptide/protein corresponding to 40 μg of AF647 was suspended in 200 μL of 1× PBS and added to the wells created by the magnetic plates. This was done 3× for each formulation to perform the experiment in triplicate. In addition, plain 1× PBS was added to one well to serve as the background measurement. After the peptides were added, the plate setup was covered with aluminum foil and allowed to incubate for 1 h at room temperature with gentle agitation (50 rpm). After incubation, the nonbinding peptides were removed by pouring out the solutions onto a clean paper towel, and the setup was washed three times by adding 200 μL of 1× PBS to each well and gently agitating the setup for 30 s before removing the washing solution. After washing was complete, fluorescence imaging was performed using an IVIS Spectrum fluorescent imaging system (PerkinElmer), with an automatically calculated exposure time (usually ∼1 s), a 20 cm × 20 cm field of view, and an excitation/emission of 640/680 nm, respectively. The imaging results were analyzed using Living Image software to calculate the total fluorescence intensity for each well, and the results for each hit or control were averaged across different wells. The negative control used was unconjugated AF647, while the positive control was WGA-AF647, since WGA is a known lectin that binds glycoproteins.
(§9) To better account for tissue-to-tissue variability, the results for each trial were reported as scores rather than using the raw fluorescence intensity. […]

In assay [2] the test system is MUC5AC-containing stomach tissue. Put plainly: Ex vivo fluorescent binding to stomach tissue. More on the design: species or system porcine. To be noted: MUC5AC-selective peptides to stomach, scaled between free AF647 (0) and WGA-AF647 (1), mean across trials n = 3.
Excerpt: as §7
as §8, with “After the peptides were added, the plate setup was covered with aluminum foil and allowed to incubate for 1 h at room temperature with gentle agitation (50 rpm). After incubation, the nonbinding peptides were removed by pouring out the solutions onto a clean paper towel, and the setup was washed three times by adding 200 μL of 1× PBS to each well and gently agitating the setup for 30 s before removing the washing solution.” left out, “The negative control used was unconjugated AF647, while the positive control was WGA-AF647, since WGA is a known lectin that binds glycoproteins.” left out
as §9

[3] abbreviates: BLI, Octet RED96, biotinylated MUC5AC on streptavidin sensor.

Where “and” joins values, the source holds several entries; their conditions need not be identical. Equal entries are not always repeated. Where two headings read alike, the source gives them in different places. Bridge positions count the residues as written; N and C are the ends. Peptide text beside a SMILES is read from it.

In the case of `C[C@@H]1NC(=O)[C@H](CCCNC(=N)N)NC(=O)[C@H](CC(=O)O)NC(=O)[C@@H]2CCCN2C(=O)[C@H](CCCNC(=N)N)NC(=O)CNC(=O)[C@H](CC(=O)O)NC(=O)[C@@H](N)CSSC[C@@H](C(=O)O)NC1=O` [Peptide M2.3] (H-CDGRPDRAC-OH; disulfide 1-9), the values for the Kd on MUC2 (BLI) and on MUC5AC (setting [3]) were 7.11 nM and 65.4 nM, respectively.
For the compound `CC(C)C[C@@H]1NC(=O)[C@H](CO)NC(=O)[C@H](CO)NC(=O)[C@H](C)NC(=O)[C@@H](N)CSSC[C@@H](C(=O)O)NC(=O)[C@H](CCCNC(=N)N)NC(=O)[C@H](C(C)C)NC(=O)[C@H](CO)NC1=O` [Peptide M2.4] (H-CASSLSVRC-OH; disulfide 1-9), at MUC2 (BLI), the Kd – broadly, a measure of binding affinity in units of concentration – was found to be 112 nM. The on-rate (kon) – broadly, the second-order rate constant of association – at MUC2 (pH 7.2, BLI, read-out: kon) came out at 57700 M⁻¹ s⁻¹; on MUC5AC (pH 1.82, BLI, Octet RED96, biotinylated MUC5AC on streptavidin sensor, PBS-HCl pH 1.82, association 300 s, dissociation 300 s), 29500 M⁻¹ s⁻¹.
With `CC[C@H](C)[C@@H]1NC(=O)[C@@H]2CCCN2C(=O)CNC(=O)[C@@H](N)CSSC[C@@H](C(=O)O)NC(=O)[C@H](CC(C)C)NC(=O)[C@H](C)NC(=O)[C@H]([C@@H](C)O)NC(=O)[C@H](Cc2ccc(O)cc2)NC1=O` [Peptide M5.2] (H-CGPIYTALC-OH; disulfide 1-9), the Kd was 112 nM on MUC2 (BLI) and 7.88 nM at MUC5AC (setting [3]). Besides, at MUC5AC (BLI, MUC5AC pH 1.82 vs MUC2), the “kd for MUC5AC binding compared with MUC2 binding (stronger)” value is 2 orders of magnitude.
Consider `CSCC[C@@H]1NC(=O)CNC(=O)[C@H](CCSC)NC(=O)[C@H]([C@@H](C)O)NC(=O)[C@H](CC(C)C)NC(=O)[C@H](C)NC(=O)[C@H]([C@@H](C)O)NC(=O)[C@@H](N)CSSC[C@@H](C(=O)O)NC1=O` [Peptide M5.3] (H-CTALTMGMC-OH; disulfide 1-9), for which the kon on MUC2 (BLI) was 6.33 × 10^4 M^–1s^–1 and ~10^4 M^–1s^–1. Also, the Kd on MUC5AC (setting [3]) worked out at 1.54 nM.
For the compound “Alexa Fluor 647 [Free dye, reference compound]”, the “Overall nanoparticle “score”” value in assay [1] and in assay [2] was 0 in each case.
